Molecular target: T1, JNK3 (h) (Homo sapiens, UniProt P53779)
T1 construct: purchased Reaction Biology Corp. (Kinase HotSpot service)
Experiment: JNK3 kinase inhibition, Reaction Biology Kinase HotSpot radiometric assay
Assay type: biochemical
Conditions: enzymatic activity; ATP 10 μM
Source text: (specific activity approx. 500 cpm/pmol, concentration as required).

T1 sequence (P53779 whole entry): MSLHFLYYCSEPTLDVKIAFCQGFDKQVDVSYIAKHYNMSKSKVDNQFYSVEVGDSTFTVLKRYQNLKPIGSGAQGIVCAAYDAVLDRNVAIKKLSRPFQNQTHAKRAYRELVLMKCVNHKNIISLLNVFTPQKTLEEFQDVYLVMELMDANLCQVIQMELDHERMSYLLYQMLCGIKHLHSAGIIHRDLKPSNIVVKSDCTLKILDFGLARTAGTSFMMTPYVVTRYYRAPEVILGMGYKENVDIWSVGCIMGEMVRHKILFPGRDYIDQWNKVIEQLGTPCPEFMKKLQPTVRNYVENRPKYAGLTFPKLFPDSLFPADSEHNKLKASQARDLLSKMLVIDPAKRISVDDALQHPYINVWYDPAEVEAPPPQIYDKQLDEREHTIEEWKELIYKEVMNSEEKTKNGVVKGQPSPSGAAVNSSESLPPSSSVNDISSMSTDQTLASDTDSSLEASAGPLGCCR

Row | IC50 [µM] | SMILES
1 | 0.0104 | NC(=O)N1Cc2nc(-c3ccc(Cl)c(Cl)c3)n(-c3ccnc(N[C@H]4CCCN(C(=O)C5CC5)C4)n3)c2C1 [Compound 17a, (S)-1-(2-((1-(Cyclopropanecarbonyl)Piperidin-3-yl)Amino)Pyrimidin-4-yl)-2-(3,4-Dichlorophenyl)-4,6-Dihydropyrrolo[3,4-d]Imidazole-5(1H)-Carboxamide]
2 | 0.225 | NC(=O)N1Cc2nc(-c3ccc4c(c3)OCO4)n(-c3ccnc(N[C@H]4CCCN(C(=O)C5CCC5)C4)n3)c2C1 [Compound 20c, (S)-2-(Benzo[d][1,3]Dioxol-5-yl)-1-(2-((1-(Cyclobutanecarbonyl)Piperidin-3-yl)Amino)Pyrimidin-4-yl)-4,6-Dihydropyrrolo[3,4-d]Imidazole-5(1H)-Carboxamide]
3 | 0.0186 | O=C(C1CC1)N1CCC[C@H](Nc2nccc(-n3c(-c4ccc(Cl)c(Cl)c4)nc4c3CN(C(=O)N3CCC(O)CC3)C4)n2)C1 [Compound 22a, (S)-(1-(2-((1-(Cyclopropanecarbonyl)piperidin-3-yl)amino)pyrimidin-4-yl)-2-(3,4-dichlorophenyl)-4,6-dihydropyrrolo[3,4-d]Imidazol-5(1H)-yl)(4-hydroxypiperidin-1-yl)methanone]

— publication PMC7084495, “Discovery of 1-Pyrimidinyl-2-Aryl-4,6-Dihydropyrrolo [3,4-d]Imidazole-5(1H)-Carboxamide as a Novel JNK Inhibitor” (International Journal of Molecular Sciences, 2020)
